Like-named read-outs stand apart in the source and are kept apart here.
How the values were obtained:
Format in all cases: cell-based
HIV-1 (96USHIPS7 strain) = test: HIV attachment assay in PBMCs (cell-associated p24); conditions: 15 μM
Method: ELISA kits were purchased from Coulter Electronics. The assay was performed according to the manufacturer's instructions. Control curves were generated in each assay to accurately quantitate the amount of p24 antigen in each sample. For experiments using cell lysates. Fifty thousand (5×10^4) viable cells were lysed in Coulter ELISA buffer and subjected to 1 round of freeze/thawed to liberate trapped p24 and p24 detected per manufacturers instructions. HIV capsid protein (p24) was quantitated spectrophotometrically at 450 nm using a Molecular Devices Vmax plate reader using a standard curve. Final concentrations were calculated from the optical density values using the Molecular Devices Soft Max software package.
The attachment assay with PBMCs was performed as follows. Briefly, 1×10^6 PHA/IL-2 PBMCs were incubated for 0, 2, 4 and 24 hours with IMG compounds and cannabidiol in polypropylene tubes. A pre-titered amount of HIV-1 (96USHIPS7 strain, obtained from the AIDS Research and Reference Reagent Program ) was added in the presence of compound and incubated for 3 h at 37° C. After incubation the cultures were washed 3 times (400×g, 10 min, 4° C.) with media (1:25,000 dilution of input p24), the cell pellets lysed with p24 lysing buffer (Coulter) and p24 content determined by ELISA.
PBMCs pretreated with compounds for 0, 2, 4, and 24 were incubated with cell-free HIV-1 for 3 h and the excess unbound HIV removed. The assessed the amount of HIV bound to the cell was then assessed by measuring cell-associated p24 content of total cell lysates.

[1] = Compound toxicity in the attachment assay, sister plates, MTS dye reduction; conditions: human, HeLa CD4 LTR β-gal cells, read-out: TC50
Method: At assay termination the assay plates were stained with the soluble tetrazolium-based dye MTS (CellTiter96® Reagent Promega) to determine cell viability and quantify compound toxicity. MTS is metabolized by the mitochondria enzymes of metabolically active cells to a soluble formazan product, allowing the rapid quantitative analysis cell viability and compound cytotoxicity. […] At termination of the assay 20 μL of MTS reagent was added per well and incubated for 4 h at 37° C. Adhesive plate sealers were used in place of the lids, the sealed plate was inverted several times to mix the soluble formazan product and the plate was read spectrophotometrically at 490 nm with a Molecular Devices Vmax plate reader.
The attachment assay was performed with the HeLa CD4 LTR β-gal cells available from the AIDS Research and Reference Reagent Repository. […] HeLa CD4 LTR β-gal cells express cell surface CD4 and contain an LTR β-galactosidase reporter construct. Upon infection either the Tat protein incorporated into the virion or new Tat produced following virus integration and transcription trans-activates the LTR β-gal reporter, leading to expression of the β-galactosidase enzyme. HeLa CD4 LTR β-gal cells are routinely cultured with the required selection antibiotics and screened for mycoplasma contamination. Twenty-four h prior to initiation of the assay cells were trypsinized, counted and 1×10^4 cells placed in a 0.2 cm well in media without selection antibiotics. […] A known titer of virus was then added to the wells and the incubation continued for 1 h. At the end of the incubation the wells were washed 6 times with media and the culture continued for 48 h. At 48 h the wells were washed one time with PBS and β-galactosidase enzyme expression determined by chemiluminescence per manufacturers instructions (Tropix Gal-screen™, Tropix, Bedford, Mass.). Compound toxicity was monitored on sister plates using MTS dye reduction.

HIV-1 = test: HeLa CD4 LTR β-gal HIV-1 attachment assay (Experimental Example 1); conditions: for IC50: Human immunodeficiency virus 1, HeLa

## Cc1ccc2c(c1)-c1c(O)cc(C(C)(C)CCCC(C)C)cc1OC2(C)C [IMG511, 3-Norpentyl-3-(1,1,5-trimethylhexyl)cannabinol]
HIV-1 (96USHIPS7 strain); pretreatment 0, 2, 4, 24 h
  Comments: effect on HIV attachment: No Significant effect
HIV-1 (96USHIPS7 strain); time 0 h
  % Control: 75.5%
  pg p24: 290 pg
HIV-1 (96USHIPS7 strain); time 2 h
  % Control: 85.4%
  pg p24: 328 pg
HIV-1 (96USHIPS7 strain); time 4 h
  % Control: 76.6%
  pg p24: 294 pg
HIV-1 (96USHIPS7 strain); time 24 h
  % Control: 91.7%
  pg p24: 352 pg
[1]; Experiment 1, pretreat 0 h
  CC50 at 48 h: > 50 µM
[1]; Experiment 1, pretreat 4 h
  CC50 at 48 h: > 50 µM
[1]; Experiment 1, pretreat 24 h
  CC50 at 48 h: > 50 µM
[1]; Experiment 2, pretreat 0 h
  CC50 at 48 h: > 50 µM
[1]; Experiment 2, pretreat 4 h
  CC50 at 48 h: > 50 µM
[1]; Experiment 2, pretreat 24 h
  CC50 at 48 h: 11.1 µM
HIV-1; Experiment 1, pretreat 0 h
  IC50: 25 µM
HIV-1; Experiment 1, pretreat 4 h
  IC50: 9.5 µM
HIV-1; Experiment 1, pretreat 24 h
  IC50: 2.5 µM
HIV-1; Experiment 2, pretreat 0 h
  IC50: < 0.16 µM
HIV-1; Experiment 2, pretreat 4 h
  IC50: 8.3 µM
HIV-1; Experiment 2, pretreat 24 h
  IC50: 7.1 µM
HIV-1; at all times
  β-galactosidase production relative to background (cells alone+compounds): suppressed β-galactosidase production below background
HIV-1; following a 24 h pre-incubation
  inhibition of HIV attachment/entry: consistent inhibition
HIV-1; pretreat 0 h
  Comment: suppression of β-galactosidase activity: Suppression of β-galactosidase activity
HIV-1; pretreat 4 h
  Comment: suppression of β-galactosidase activity: Suppression of β-galactosidase activity,
  Comment: transient suppression lost at lower concentrations: Transient suppression lost with at lower
HIV-1; pretreat 24 h
  Comment: suppression of β-galactosidase activity: Suppression of β-galactosidase activity

— patent US20030232101A1, “Topical formulations of resorcinols and cannibinoids and methods of use” (Immugen Pharmaceuticals, Inc., priority 2002, published 2003)
